Test results taken from PMC7430679 (RNA, 2020).

Tests used:
T. maritima TsaD = T. maritima TsaD (Thermotoga maritima, UniProt Q9WXZ2); test: STD NMR; format: binding; conditions: 20 µM protein, 1 mM amino acid, 10 mM potassium phosphate pH 6.8, 100 mM NaCl, 99% D2O, 37°C
E. coli TsaD = E. coli TsaD (Escherichia coli, UniProt P05852); test: STD NMR; format: binding; conditions: 20 µM protein, 1 mM amino acid, 10 mM potassium phosphate pH 6.8, 100 mM NaCl, 99% D2O, 37°C
E. coli TsaD, sequence (P05852 whole entry): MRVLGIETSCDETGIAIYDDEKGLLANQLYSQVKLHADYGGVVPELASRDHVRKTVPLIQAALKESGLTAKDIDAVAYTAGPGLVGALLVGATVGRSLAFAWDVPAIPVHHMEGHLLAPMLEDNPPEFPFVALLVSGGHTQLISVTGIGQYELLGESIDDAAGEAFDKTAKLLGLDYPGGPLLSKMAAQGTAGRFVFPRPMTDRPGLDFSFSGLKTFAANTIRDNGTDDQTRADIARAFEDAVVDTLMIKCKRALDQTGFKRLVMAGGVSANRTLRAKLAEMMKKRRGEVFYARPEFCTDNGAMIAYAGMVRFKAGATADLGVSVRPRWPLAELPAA

T. maritima TsaD, sequence (Q9WXZ2 whole entry): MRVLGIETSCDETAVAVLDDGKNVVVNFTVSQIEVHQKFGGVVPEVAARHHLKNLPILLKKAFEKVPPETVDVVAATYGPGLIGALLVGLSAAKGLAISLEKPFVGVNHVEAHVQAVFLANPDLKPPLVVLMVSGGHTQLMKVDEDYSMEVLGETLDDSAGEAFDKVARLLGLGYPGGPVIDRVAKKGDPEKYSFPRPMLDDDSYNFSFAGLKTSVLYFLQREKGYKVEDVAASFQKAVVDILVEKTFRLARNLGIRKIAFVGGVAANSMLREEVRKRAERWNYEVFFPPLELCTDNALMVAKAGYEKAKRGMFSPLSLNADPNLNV

SMILES	STD NMR (T. maritima TsaD; racemate tested)	STD NMR (E. coli TsaD)	STD NMR (T. maritima TsaD)
CCC(O)C(N)C(=O)O (racemic) [hnV, D,L-3-hydroxynorvaline]	interaction with hydroxynorvaline, distinct signals due to interactions with the Hα and Hβ protons	–	–
C[C@@H](O)[C@H](N)C(=O)O [Thr, L-threonine]	–	E. coli TsaD shows a similar pattern of interaction with threonine	clear STD NMR signal for its interaction with the Hβ proton of threonine
